Experimental findings from PubChem BioAssay (NCI) are described below.

Test systems include MDA-N; T-47D breast; A498 renal; MDA-MB-231 breast; SR leukemia; SNB-75 CNS; HCC-2998 colon; HCT-116 colon; 786-0 renal; M19-MEL melanoma; LXFL 529 NSCLC; KM20L2 colon; HOP-18 NSCLC.
Holding throughout (assay): DTP human tumour cell line panel, 48 h

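Interpolation was linear, between the two tested concentrations surrounding the appropriate level; five concentrations were tested over 48 hours in 96-well plates. GI50 is the concentration that inhibits growth by half. Definition used: TGI = concentration required for complete inhibition of growth.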

One may read the TGI as the concentration at which net growth stops. Lower therefore signals more potent growth arrest. For the compound `COc1cc2cc[n+](C)c(Cc3ccc(Oc4cc(Cc5c6cc(OC)c(OC)cc6cc[n+]5C)ccc4OC)cc3)c2cc1OC`, the total growth inhibition concentration (TGI) in the experiment with MDA-N, in the experiment on T-47D breast, in the experiment with A498 renal, with MDA-MB-231 breast, with SR leukemia and in the experiment with SNB-75 CNS was more than 100 µM throughout. Moreover, the TGI in the experiment on HCC-2998 colon, in the experiment with HCT-116 colon and in the experiment with 786-0 renal was more than 100 µM in each case.

On to `CS(=O)(=O)Nc1ccc(NCc2cnc3ccc4[nH]cccc4c23)cc1`, for which the TGI with MDA-N turned out to be 37.5 µM; in the experiment on T-47D breast, 66.6 µM; in the experiment on A498 renal it was 51.8 µM; in the experiment on MDA-MB-231 breast, 97.4 µM; in the experiment on SR leukemia it was 47.7 µM; in the experiment with SNB-75 CNS it was 61.3 µM. For the same compound, the TGI in the experiment with HCT-116 colon was 51.8 µM; in the experiment with 786-0 renal, more than 100 µM.

By GI50 is commonly meant the concentration at which growth is held to half of that of the control. Turning to `CC12OC(C(=O)C13CCC3)C1C(=O)c3c(O)ccc(O)c3C(=O)C12` (configuration not stated), the GI50 in the experiment with T-47D breast is 0.948 µM; in the experiment on A498 renal it was 14.5 µM; in the experiment with MDA-MB-231 breast, 2.41 µM; with SR leukemia it was 0.29 µM; with SNB-75 CNS it was 4.99 µM; in the experiment with HCT-116 colon, 0.571 µM. The TGI with T-47D breast is 3.2 µM; in the experiment on A498 renal it was 29.8 µM; in the experiment with MDA-MB-231 breast, 7.47 µM; in the experiment on SR leukemia it was 2.23 µM; in the experiment with SNB-75 CNS, 20.1 µM; with HCT-116 colon, 1.78 µM.

On to `O=C(NN1CCCCC1)c1cc2cc(CCl)ccc2oc1=O`, for which the TGI in the experiment with MDA-N is 33.4 µM; in the experiment with T-47D breast it was 48.7 µM; in the experiment on A498 renal, more than 100 µM; with MDA-MB-231 breast, 38.6 µM; in the experiment on SR leukemia, 67.8 µM; in the experiment on SNB-75 CNS, 34.9 µM. Also, the TGI in the experiment on HCC-2998 colon was 27.1 µM; in the experiment on HCT-116 colon, 38 µM; with 786-0 renal, 32 µM.

For the compound `CC(C)C(=O)CC(c1ccc(Br)cc1)N1N=C(C(C)C)CC1c1ccc(Br)cc1` (configuration not stated), the TGI with M19-MEL melanoma, in the experiment on SR leukemia, in the experiment with LXFL 529 NSCLC, in the experiment with KM20L2 colon, with HCC-2998 colon and in the experiment on HOP-18 NSCLC was more than 100 µM throughout. The same compound yielded a concentration for total growth inhibition (TGI) in the experiment with HCT-116 colon of more than 100 µM.

As for `CC(C)(C)COS(=O)OCC(C)(C)C`, the TGI in the experiment on MDA-N, in the experiment with T-47D breast, in the experiment with A498 renal, in the experiment on MDA-MB-231 breast, with SR leukemia and in the experiment with SNB-75 CNS was more than 100 µM throughout. In addition, the TGI in the experiment on HCC-2998 colon, in the experiment with HCT-116 colon and in the experiment with 786-0 renal was more than 100 µM throughout.

Consider `Fc1c(F)c(F)c(CSc2nc3ccccc3[nH]2)c(F)c1F`, for which the TGI in the experiment with MDA-N, with T-47D breast, in the experiment with A498 renal, in the experiment with MDA-MB-231 breast, with SR leukemia and with SNB-75 CNS was more than 100 µM throughout. Also, the TGI in the experiment on HCC-2998 colon and with HCT-116 colon was more than 100 µM in each case.

As to `COc1cc(S(=O)(=O)Nc2ccc(-c3csc(/N=C\c4cccc(Oc5ccccc5)c4)n3)cc2)ccc1Cl`, the TGI with T-47D breast was 34.4 µM; in the experiment on SR leukemia it was 81.9 µM; in the experiment on SNB-75 CNS, 80.1 µM; in the experiment with HCT-116 colon it was 92.6 µM; with 786-0 renal, more than 100 µM.

For `CC(CCCCNC(=O)OC(C)(C)C)NC(=O)NC(C)CCCCNC(=O)OC(C)(C)C` (configuration not stated), the TGI in the experiment on MDA-N, in the experiment with T-47D breast, in the experiment on A498 renal, in the experiment on MDA-MB-231 breast, with SR leukemia and in the experiment on SNB-75 CNS was more than 100 µM each time. The TGI in the experiment on HCT-116 colon and in the experiment on 786-0 renal was more than 100 µM in each case.

Consider `C=C(CN(C)C)C(=O)c1ccccc1Cl`, for which the TGI is 33.4 µM with M19-MEL melanoma; more than 96 µM in the experiment with A498 renal; more than 81.7 µM in the experiment on SR leukemia; 26 µM in the experiment with LXFL 529 NSCLC; more than 80.7 µM with SNB-75 CNS; more than 60.4 µM in the experiment with KM20L2 colon. The concentration for total growth inhibition (TGI) in the experiment with HCC-2998 colon came to 61 µM; in the experiment on HOP-18 NSCLC, 33.7 µM; in the experiment on HCT-116 colon, 34 µM; in the experiment with 786-0 renal, 34.3 µM.

Turning to `CCC1=C(CC2NCCc3cc(OC)c(OC)cc32)CC2c3ccccc3CCN2C1` (configuration not stated), the TGI with MDA-N amounted to 27 µM; in the experiment with T-47D breast, 54.5 µM; in the experiment with A498 renal it was 28.5 µM; with MDA-MB-231 breast it was 74.4 µM; with SR leukemia, 24.1 µM; with SNB-75 CNS, 87.9 µM. Moreover, the values for the TGI in the experiment on HCT-116 colon and in the experiment with 786-0 renal were more than 100 µM and 35.6 µM, respectively.

As to `OC1CCSc2ccccc21` (configuration not stated), the TGI with M19-MEL melanoma, in the experiment with SR leukemia, in the experiment on LXFL 529 NSCLC, in the experiment with KM20L2 colon, in the experiment on HCC-2998 colon and with HOP-18 NSCLC was more than 100 µM each time. Further, the TGI in the experiment with HCT-116 colon is more than 100 µM.

As to `Cc1c2ccccc2cc2cccc[n+]12`, the total growth inhibition concentration (TGI) was more than 100 µM with MDA-N; more than 100 µM with MDA-MB-231 breast; more than 100 µM in the experiment with SR leukemia; 83.7 µM in the experiment with SNB-75 CNS; more than 100 µM in the experiment with HCC-2998 colon; more than 100 µM with HCT-116 colon. The total growth inhibition concentration (TGI) with 786-0 renal is more than 100 µM.
